This assay has as its system nude mice, LOX melanoma ip, survival T/C. As to the kind of experiment: NCI In Vivo Anticancer Drug Screen. Data for tumor model Human Amelanotic Melanoma (LOX) (intraperitoneal) in NU/NU BALB/C (nude) mice. The following applies: endpoint: median survival time, higher = longer survival. How it is done:
The antitumor activity of compounds was measured in mice bearing transplantable tumors. Survival or tumor size were measured and the results are expressed as the measurement made in the treated group (T) divided by the measurement made in the vehicle treated control group (C). The tumor model used in this assay is Human Amelanotic Melanoma (LOX) (intraperitoneal) in NU/NU BALB/C (nude) mice

Where [1] appears, read: dose: 50.0 mg/kg/injection, schedule: Q04DX003 (ip), vehicle: Klucel (hydroxypropylcellulose) (HPC).
Setting [2] is: dose: 75.0 mg/kg/injection, schedule: Q04DX003 (ip), vehicle: Klucel (hydroxypropylcellulose) (HPC).
Setting [3] is: dose: 150.0 mg/kg/injection, schedule: Q04DX003 (ip), vehicle: Klucel (hydroxypropylcellulose) (HPC).
Where [4] appears, read: dose: 300.0 mg/kg/injection, schedule: Q04DX003 (ip), vehicle: Klucel (hydroxypropylcellulose) (HPC).

“And” between values parts separate entries of the source, which are not always exact repeats. Equal values may be shown once. Inconclusive results and toxic doses are left out.

Consider `O=C(Oc1ccccc1)c1cc(O)c(O)c(O)c1`, for which the T/C was 157 % of control (dose: 37.5 mg/kg/injection, schedule: Q04DX003 (ip), vehicle: saline); 99 % of control (dose: 75.0 mg/kg/injection, schedule: Q04DX003 (ip), vehicle: saline); 152 % of control (dose: 150.0 mg/kg/injection, schedule: Q04DX003 (ip), vehicle: saline); 88 % of control (dose: 300.0 mg/kg/injection, schedule: Q04DX003 (ip), vehicle: saline); 94 % of control (dose: 600.0 mg/kg/injection, schedule: Q04DX003 (ip), vehicle: saline).
Regarding `CCOC(=O)Nc1cc(NC(C)/C(=N/O)c2ccccc2)c([N+](=O)[O-])c(N)n1` (centres undefined), the T/C under setting [1] is 97 % of control; the T/C (dose: 51.84 mg/kg/injection, schedule: Q04DX003 (ip), vehicle: Klucel (hydroxypropylcellulose) (HPC)) was 109 % of control; the T/C (dose: 86.4 mg/kg/injection, schedule: Q04DX003 (ip), vehicle: Klucel (hydroxypropylcellulose) (HPC)) was 104 % of control; the T/C (dose: 144.0 mg/kg/injection, schedule: Q04DX003 (ip), vehicle: Klucel (hydroxypropylcellulose) (HPC)) was 89 % of control; the T/C (dose: 240.0 mg/kg/injection, schedule: Q04DX003 (ip), vehicle: Klucel (hydroxypropylcellulose) (HPC)) was 101 % of control.
With `Nc1ccc(S(=O)(=O)Nc2cnc3c(Cl)cccc3n2)cc1`, the T/C runs as follows: (dose: 89.1 mg/kg/injection, schedule: Q06HX002 (ip), vehicle: other) 103 % of control; (dose: 133.5 mg/kg/injection, schedule: Q01DX001 (ip), vehicle: other) 88 % of control; (dose: 133.5 mg/kg/injection, schedule: Q01DX005 (ip), vehicle: other) 109 % of control; (dose: 133.5 mg/kg/injection, schedule: Q06HX002 (ip), vehicle: other) 103 % of control; (dose: 200.2 mg/kg/injection, schedule: Q01DX001 (ip), vehicle: other) 98 % of control; (dose: 200.2 mg/kg/injection, schedule: Q01DX005 (ip), vehicle: other) 114 % of control. Moreover, the T/C was 114 % of control (dose: 200.2 mg/kg/injection, schedule: Q06HX002 (ip), vehicle: other); 104 % of control (dose: 300.2 mg/kg/injection, schedule: Q01DX001 (ip), vehicle: other); 116 % of control (dose: 300.2 mg/kg/injection, schedule: Q01DX005 (ip), vehicle: other); 111 % of control (dose: 300.2 mg/kg/injection, schedule: Q06HX002 (ip), vehicle: other); 110 % of control (dose: 450.0 mg/kg/injection, schedule: Q01DX001 (ip), vehicle: other); 119 % of control (dose: 674.7 mg/kg/injection, schedule: Q01DX001 (ip), vehicle: other).
As for `COc1ccc2c(c1)-c1nn(CCCN(C)C)c3ccc([N+](=O)[O-])c(c13)N2`, the T/C is, setting by setting: (dose: 5.8 mg/kg/injection, schedule: Q04HX006 (ip), vehicle: water) 116 % of control; (dose: 8.8 mg/kg/injection, schedule: Q04HX006 (ip), vehicle: water) 119 % of control; (dose: 13.3 mg/kg/injection, schedule: Q04DX003 (ip), vehicle: water) 117 % of control; (dose: 13.3 mg/kg/injection, schedule: Q04HX006 (ip), vehicle: water) 123 % of control and 96 % of control; (dose: 19.8 mg/kg/injection, schedule: Q04DX003 (ip), vehicle: water) 113 % of control; (dose: 19.8 mg/kg/injection, schedule: Q04HX006 (ip), vehicle: water) 123 % of control. The T/C is, setting by setting: (dose: 21.0 mg/kg/injection, schedule: Q04DX003 (ip), vehicle: water) 107 % of control; (dose: 21.6 mg/kg/injection, schedule: Q04DX003 (ip), vehicle: water) 103 % of control; (dose: 29.7 mg/kg/injection, schedule: Q04DX003 (ip), vehicle: water) 114 % of control; (dose: 29.7 mg/kg/injection, schedule: Q04HX006 (ip), vehicle: water) 123 % of control; (dose: 36.0 mg/kg/injection, schedule: Q04DX003 (ip), vehicle: water) 114 % of control and 93 % of control; (dose: 44.5 mg/kg/injection, schedule: Q04DX003 (ip), vehicle: water) 114 % of control and 117 % of control. Moreover, the T/C (dose: 44.5 mg/kg/injection, schedule: Q04HX006 (ip), vehicle: water) was 122 % of control; the T/C (dose: 60.0 mg/kg/injection, schedule: Q04DX003 (ip), vehicle: water) is 109 % of control and 114 % of control; the T/C (dose: 66.7 mg/kg/injection, schedule: Q04DX003 (ip), vehicle: water) was 118 % of control.
In the case of `O=C(NC(Cc1ccc(I)cc1)C(=O)O)c1cccc(Br)c1` (centres undefined), the T/C by setting is: under setting [1], 112 % of control; under setting [2], 105 % of control; (dose: 100.0 mg/kg/injection, schedule: Q04DX003 (ip), vehicle: Klucel (hydroxypropylcellulose) (HPC)) 112 % of control; under setting [3], 89 % of control; (dose: 200.0 mg/kg/injection, schedule: Q04DX003 (ip), vehicle: Klucel (hydroxypropylcellulose) (HPC)) 103 % of control; under setting [4], 96 % of control. In addition, the T/C (dose: 400.0 mg/kg/injection, schedule: Q04DX003 (ip), vehicle: Klucel (hydroxypropylcellulose) (HPC)) was 87 % of control.
As to `CC1=C[P+](c2ccccc2)(c2ccccc2)C=C(c2ccccc2)O1`, the T/C by setting is: (dose: 0.38 mg/kg/injection, schedule: Q04DX003 (ip), vehicle: saline) 97 % of control; (dose: 3.0 mg/kg/injection, schedule: Q04DX003 (ip), vehicle: saline) 88 % of control.
Consider `CCOc1ccc(C(C)c2cc3c(cc2OC)OCO3)cc1` (centres undefined), for which the T/C is, setting by setting: (dose: 150.0 mg/kg/injection, schedule: Q04DX003 (ip), vehicle: distilled water + Tween-80) 177 % of control; (dose: 300.0 mg/kg/injection, schedule: Q04DX003 (ip), vehicle: distilled water + Tween-80) 161 % of control and 163 % of control; (dose: 600.0 mg/kg/injection, schedule: Q04DX003 (ip), vehicle: distilled water + Tween-80) 226 % of control and 252 % of control.
Consider `CC(=O)O[C@H]1C(=O)[C@@]2(C)[C@H]([C@H](OC(=O)c3ccccc3)[C@]3(O)C[C@H](OC(=O)[C@H](O)[C@@H](NC(=O)c4ccccc4)c4ccccc4)C(C)=C1C3(C)C)[C@]1(OC(C)=O)CO[C@@H]1C[C@@H]2O`, for which the T/C is 172 % of control (dose: 1.88 mg/kg/injection, schedule: Q01DX009 (ip), vehicle: Klucel (hydroxypropylcellulose) (HPC)); 158 % of control and 173 % of control (dose: 3.75 mg/kg/injection, schedule: Q01DX009 (ip), vehicle: Klucel (hydroxypropylcellulose) (HPC)); 170 % of control (dose: 7.5 mg/kg/injection, schedule: Q01DX009 (ip), vehicle: Klucel (hydroxypropylcellulose) (HPC)); 105 % of control and 93 % of control (dose: 15.0 mg/kg/injection, schedule: Q01DX009 (ip), vehicle: Klucel (hydroxypropylcellulose) (HPC)).
In the case of `Cn1cc(C2NC(=O)c3ccccc3N2)c2ccccc21` (centres undefined), the T/C was 110 % of control and 100 % of control under setting [2]; 106 % of control and 122 % of control under setting [3]; 110 % of control and 94 % of control under setting [4].
For the compound `CCCCCC[Se][Se]CCCCCC`, the T/C (dose: 37.5 mg/kg/injection, schedule: Q04DX003 (ip), vehicle: Klucel (hydroxypropylcellulose) (HPC)) is 98 % of control; the T/C under setting [2] was 96 % of control; the T/C under setting [3] was 93 % of control; the T/C under setting [4] was 105 % of control.
For `CCOC(=O)NC1CCc2cc(OC)c(OC)c(OC)c2-c2ccc(OC)c(=O)cc21` (centres undefined), the T/C reads like this: (dose: 2.5 mg/kg/injection, schedule: Q04DX003 (ip), vehicle: Klucel (hydroxypropylcellulose) (HPC)) 154 % of control; (dose: 5.0 mg/kg/injection, schedule: Q04DX003 (ip), vehicle: Klucel (hydroxypropylcellulose) (HPC)) 154 % of control; (dose: 10.0 mg/kg/injection, schedule: Q04DX003 (ip), vehicle: Klucel (hydroxypropylcellulose) (HPC)) 178 % of control; (dose: 20.0 mg/kg/injection, schedule: Q04DX003 (ip), vehicle: Klucel (hydroxypropylcellulose) (HPC)) 214 % of control.
On to `COc1ccc(C(C)c2cc3c(cc2OC)OCO3)cc1` (centres undefined), for which the T/C is 114 % of control (dose: 25.0 mg/kg/injection, schedule: Q04DX003 (ip), vehicle: saline with Tween-80); 158 % of control (dose: 100.0 mg/kg/injection, schedule: Q04DX003 (ip), vehicle: saline with Tween-80); 198 % of control (dose: 200.0 mg/kg/injection, schedule: Q04DX003 (ip), vehicle: saline with Tween-80).
On to `CC(O)CCC(=O)c1ccoc1` (centres undefined), for which the T/C was 103 % of control and 118 % of control and 119 % of control (dose: 10.8 mg/kg/injection, schedule: Q01DX001 (ip), vehicle: propolene glycol); 117 % of control (dose: 30.0 mg/kg/injection, schedule: Q01DX001 (ip), vehicle: propolene glycol).

The record behind these values is PubChem BioAssay AID280 (DTP/NCI, 2004).
